ChEMBL document CHEMBL1201862, “PubChem BioAssay data set” (2004)
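Tested at 5 concentrations; 48 h exposure; 96-well plates; endpoints linearly interpolated, else capped at highest concentration. GI50 is the concentration that inhibits growth by half.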 Active and inactive are the calls of the source. Rule as the data show it: active = GI50 up to about 1.1 µM and inactive = higher.

Key:
Assay in all cases: inhibition of tumour cell growth, NCI panel, 48 h
[1] = tested on: DLD-1
[2] = tested on: KM-20L2
[3] = tested on: LXFL 529
[4] = tested on: RXF 631
[5] = tested on: DMS-273
[6] = tested on: DMS-114
[7] = tested on: HOP-18
[8] = tested on: XF498
[9] = tested on: SNB-78

Measured: GI50

C=C1CCCC2OC(OC)CCC12 (configuration not stated)
inactive: [1] > 100 µM | [2] > 100 µM | [3] > 100 µM | [4] > 100 µM | [5] > 100 µM | [6] > 100 µM | [7] > 100 µM | [8] > 100 µM | [9] > 100 µM

Cn1c(=O)nc2n(-c3ccc(Br)cc3)c3ccccc3nc-2c1=O
inactive: [1] 4.05 µM | [2] 2.54 µM | [3] 12.2 µM | [4] 4.11 µM | [5] 1.88 µM | [6] 2 µM | [7] 5.6 µM | [8] 12.1 µM | [9] 14 µM

O=C1c2ccccc2CC1C1(O)C(=O)Nc2c(Cl)cc(Cl)cc21 (configuration not stated)
inactive: [1] 53.1 µM | [2] > 100 µM | [3] 18.8 µM | [4] > 100 µM | [5] 68.4 µM | [6] 21.9 µM | [7] 14.1 µM | [8] 28.4 µM | [9] > 100 µM
